From patent US20250250251A1, “PIPERIDINYLPYRIDINYLCARBONITRILE DERIVATIVES AS INHIBITORS OF GLUTAMINYL-PEPTIDE CYCLOTRANSFERASE AND GLUTAMINYL-PEPTIDE CYCLOTRANSFERASE LIKE PROTEIN” (Boehringer Ingelheim International GmbH, priority 2024, published 2025)

System: SIRPα signalling induced by A549 cells
Experiment: Assay B: SIRPα signalling assay using A549 cells
Format: cell-based
Details: Homo sapiens, Table 4, compounds of the invention, read-out: Inhibition of SIRPα signalling induced by A549 cells: IC50
Experimental: Two cell types are independently used: the Raji cell line (lymphoblast-like human cell line derived from B lymphocytes from a Burkitt's lymphoma patient in 1963) and A549 cells (adenocarcinoma human alveolar basal epithelial cells).
Test compounds were dissolved in 100% DMSO and serially diluted into a white 384-well microtiter cell culture plate (PerkinElmer #60076780 in case of Raji assay; PDL-coated plates Greiner #781945 in case of A549 assay). 5000 Raji cells (ATCC #CC86) or 5000 A549 cells (ATCC #CCL-185) in Assay Complete Cell Plating reagent 30 (DiscoverX 93-0563R30B) were added per well. The assay plate was incubated for 48 h at 37° C., 95% humidity and 5% CO2. 15000 reporter cells (Jurkat PathHunter SIRPαV1, DiscoverX #93-1135C19) were added to each well, and the plate was incubated for 5 h at 37° C., 95% humidity and 5% CO2. Bioassay reagent 1 of the PathHunter Bioassay detection kit (DiscoverX 93-0001) was added to each well of the plate using a multichannel pipette followed by a 15 min incubation at room temperature. Afterwards bioassay reagent 2 was added followed by 60 min incubation at room temperature (incubation in the dark).
The analysis of the data was performed using the luminescence signal generated by beta-galactosidase in the PathHunter reporter cell line. The luminescence measurement was done using a Pherastar Multi-Mode Reader. Dose-response curves & IC50 data were calculated with 4-parameter sigmoidal dose response formula.
Compound `Cn1cnnc1C1(F)CCN(c2c(C#N)cc(C(F)(F)F)nc2-c2cnc3nn(C(C)(C)C)c(C4CC4)c3c2)CC1` [Example 26] has an IC50 of 11 nM. In the case of `Cn1cnnc1C1(F)CCN(c2c(C#N)cc(C(F)(F)F)nc2-c2cnc3nn(C(C)(C)C)c(C(F)F)c3c2)CC1` [Example 16], the IC50 is reported as 17 nM.

Same assay, conditions: Homo sapiens, Table 5, prior art compounds, read-out: Inhibition of SIRPα signalling induced by A549 cells: IC50
Compound `Cn1cncc1C1CCN(c2c(C#N)cccc2-c2ccc(F)nc2)CC1` [QP5038, reference compound] has an IC50 of 6 nM.

System: CYP3A4 mRNA
Experiment: Assay D: CYP induction screening assay in primary human hepatocytes
Format: in vitro ADME
Details: Table 9, compounds of the invention, 48 h
Experimental: Cryopreserved plateable human hepatocytes (single donor. BioIVT) were thawed and plated in Collagen-I coated 96-well-plates at a cell density of 0.07 million cells per well.
After a 6 h attachment period, the seeding medium was replaced by serum-free William's medium E supplemented with Matrigel (0.25 mg/ml) and allowed to recover overnight. 24 h post-seeding, serum-free Williams E medium containing the test compound at a final concentration of […] and a final DMSO content of 0.1% and 0.1% DMSO (solvent-treated control), respectively, was added to predefined wells. Exposure solutions were renewed after 24 h.
After 48 h of treatment in total, the effect of the test compounds on CYP3A4 mRNA expression was assessed using the QuantiGene Plex Gene Expression Assay. Hepatocytes were lysed and total RNA was extracted using the QuantiGene Sample Processing Kit according to the instructions of the manufacturer.
mRNA quantification was conducted using a customized QuantiGene Plex Panel to analyse CYP3A4 and the housekeeper genes RPL32, EIF4E2 and GUSB according to the instructions of the manufacturer and measured on a Luminex™ instrument. Signal was reported as median fluorescence intensity (MFI), which is proportional to the number of target RNA molecules present in the sample.
For calculation of CYP3A4 mRNA induction, the signal for CYP3A4 was normalized against the geometric mean of the signal obtained for the housekeeper genes for hepatocytes exposed to test compounds in relation to solvent-treated samples according to the following equation: […]
With `Cn1cnnc1C1(F)CCN(c2c(C#N)cc(C(F)(F)F)nc2-c2cnc3nn(C(C)(C)C)c(C4CC4)c3c2)CC1` [Example 26] the “n-fold induction of CYP3A4 at 10 μM” value was 7.9 n-fold. With `Cn1cnnc1C1(F)CCN(c2c(C#N)cc(C(F)(F)F)nc2-c2cnc3nn(C(C)(C)C)c(C(F)F)c3c2)CC1` [Example 16] the “n-fold induction of CYP3A4 at 10 μM” value was 6.0 n-fold.

Same assay, conditions: Table 10, prior art compounds, 48 h
With `Cn1cncc1C1CCN(c2c(C#N)cccc2-c2ccc(F)nc2)CC1` [QP5038, reference compound] the “n-fold induction of CYP3A4 at 10 μM” value was 58.5 n-fold.

Molecular target: T1, QPCTL (Homo sapiens, UniProt Q9NXS2)
T1 construct: made in house
T1 sequence (Q9NXS2 whole entry, species assumed): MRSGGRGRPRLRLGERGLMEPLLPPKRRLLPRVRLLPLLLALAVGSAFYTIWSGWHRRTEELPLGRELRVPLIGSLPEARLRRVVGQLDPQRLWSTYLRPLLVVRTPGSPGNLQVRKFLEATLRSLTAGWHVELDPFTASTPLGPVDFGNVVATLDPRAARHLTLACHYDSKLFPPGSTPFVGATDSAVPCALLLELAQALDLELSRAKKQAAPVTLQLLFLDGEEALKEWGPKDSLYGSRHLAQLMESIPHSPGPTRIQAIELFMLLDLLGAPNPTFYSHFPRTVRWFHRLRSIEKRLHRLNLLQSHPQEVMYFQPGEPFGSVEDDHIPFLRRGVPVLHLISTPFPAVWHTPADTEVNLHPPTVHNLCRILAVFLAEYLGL
Experiment: Assay A: biochemical QPCTL activity assay (MALDI-TOF MS, CD47 peptide substrate)
Details: Table 2, compounds of the invention, read-out: Inhibition of QPCTL: IC50
Experimental: (§1) QPCT or QPCTL dependent conversion of N-terminal glutamine to pyroglutamate of CD47 was monitored via MALDI-TOF MS. Test compounds were dissolved in 100% DMSO and serially diluted into clear 1,536-well microtiter plates. Enzymatic reactions were set up in assay buffer containing 20 mM Tris pH 7.5, 0.1 mM TCEP, 0.01% BSA, and 0.001% Tween20. […] The plates were incubated for 10 min in a humidified incubator at 24° C. Subsequently, 2.5 μL of CD47 peptide substrate surrogate (^19[…]^33) was added to each well (final concentration: 10 μM for QPCTL/20 μM for QPCT). The plates were mixed for 30 sec at 1,000 rpm and subsequently incubated for 40 min in a humidified incubator at 24° C. […] The plates were sealed with an adhesive foil, mixed for 30 s at 1,000 rpm and stored at room temperature until preparation of the MALDI target plates. MALDI target plates were prepared as described previously. […] QPCT or QPCTL activity was monitored by calculating the ratio between product and internal standard signals followed by normalization to high (100% activity) and low (0% activity) controls. Determination of compound potencies was obtained by fitting the dose-response data to a four-parameter logistical equation.
Work on `Cn1cnnc1C1(F)CCN(c2c(C#N)cc(C(F)(F)F)nc2-c2cnc3nn(C(C)(C)C)c(C4CC4)c3c2)CC1` [Example 26] yielded an IC50 of 1 nM. `Cn1cnnc1C1(F)CCN(c2c(C#N)cc(C(F)(F)F)nc2-c2cnc3nn(C(C)(C)C)c(C(F)F)c3c2)CC1` [Example 16] gave an IC50 of 3 nM.

System: not listed separately
Experiment: Assay C: permeability in CACO-2 cells
Format: in vitro ADME
Details: human, pH 7.2; Table 7, compounds of the invention, CACO-2 cells
Experimental: Caco-2 cells (1-2×10^5 cells/1 cm^2 area) are seeded on filter inserts (Costar transwell polycarbonate or PET filters, 0.4 μm pore size) and cultured (DMEM) for 10 to 25 days. Compounds are dissolved in appropriate solvent (like DMSO, 1-20 mM stock solutions). […] The transport solution (TL) is applied to the apical or basolateral donor side for measuring A-B or B-A permeability (3 filter replicates), respectively. Samples are collected at the start and end of experiment from the donor and at various time intervals for up to 2 hours also from the receiver side for concentration measurement by HPLC-MS/MS or scintillation counting. Sampled receiver volumes are replaced with fresh receiver solution.
Efflux ratio (ER)=permeability B−A/permeability A−B
Compound `Cn1cnnc1C1(F)CCN(c2c(C#N)cc(C(F)(F)F)nc2-c2cnc3nn(C(C)(C)C)c(C4CC4)c3c2)CC1` [Example 26] has a Papp A→B of 17 ×10⁻⁶ cm/s. `Cn1cnnc1C1(F)CCN(c2c(C#N)cc(C(F)(F)F)nc2-c2cnc3nn(C(C)(C)C)c(C(F)F)c3c2)CC1` [Example 16] showed a Papp A→B of 34 ×10⁻⁶ cm/s.

Same assay, conditions: human, pH 7.2; Table 7, compounds of the invention, CACO-2 cells, permeability B-A/permeability A-B; read-out: Efflux Ratio
With `Cn1cnnc1C1(F)CCN(c2c(C#N)cc(C(F)(F)F)nc2-c2cnc3nn(C(C)(C)C)c(C4CC4)c3c2)CC1` [Example 26] the efflux ratio was 4.8. For `Cn1cnnc1C1(F)CCN(c2c(C#N)cc(C(F)(F)F)nc2-c2cnc3nn(C(C)(C)C)c(C(F)F)c3c2)CC1` [Example 16], the efflux ratio was 1.8.

System: murine hepatocytes
Experiment: Assay E: stability in murine hepatocytes
Format: in vitro ADME, mouse
Details: Table 12, compounds of the invention, 1 μM, 5% species serum
Experimental: The metabolic degradation of the test compound is assayed in a murine hepatocyte suspension.
Murine hepatocytes (typically cryopreserved) are incubated in an appropriate buffer system (e.g. Dulbecco's modified eagle medium plus 3.5 μg glucagon/500 mL, 2.5 mg insulin/500 mL and 3.75 mg/500 mL hydrocortison) containing 5% species serum.
Following a (typically) 30 min preincubation in an incubator (37° C., 10% CO2) 5 μl of test compound solution (80 μM; from 2 mM in DMSO stock solution diluted 1:25 with medium) are added into 395 μl hepatocyte suspension (cell density in the range 0.25-5 Mio cells/mL, typically 1 Mio cells/mL; final concentration of test compound 1 μM, final DMSO concentration 0.05%).
The cells are incubated for six hours (incubator, orbital shaker) and samples (25 μl) are taken at 0, 0.5, 1, 2, 4 and 6 hours. Samples are transferred into acetonitrile and pelleted by centrifugation (5 min). The supernatant is transferred to a new 96-deepwell plate, evaporated under nitrogen and resuspended.
Decline of parent compound is analyzed by HPLC-MS/MS
CLint is calculated as follows CL_[…]=Dose/AUC=(C0/CD)/(AUD+clast/k)×1000/60. C0: initial concentration in the incubation [μM], CD: cell density of vital cells [10e6 cells/mL], AUD: area under the data [μM×h], clast: concentration of last data point [μM], k: slope of the regression line for parent decline [h−1].
The calculated in vitro hepatic intrinsic clearance can be scaled up to the intrinsic in vivo hepatic Clearance and used to predict hepatic in vivo blood clearance (CL) by the use of a liver model (well stirred model).
[formula] [formula] [formula] • Hepatocellularity, mouse: 120×10e6 cells/g liver • Liver factor, mouse: 55 g/kg bodyweight • Blood flow, mouse: 90 ml/(min×kg)
With `Cn1cnnc1C1(F)CCN(c2c(C#N)cc(C(F)(F)F)nc2-c2cnc3nn(C(C)(C)C)c(C4CC4)c3c2)CC1` [Example 26] the “Mouse Hepatocyte Stability QH” value was 27%.

Same assay, conditions: Table 13, prior art compounds, 1 μM, 5% species serum
In the case of `Cn1cncc1C1CCN(c2c(C#N)cccc2-c2ccc(F)nc2)CC1` [QP5038, reference compound], the “Mouse Hepatocyte Stability QH” value is reported as 97%.

System: SIRPα signalling induced by Raji cells
Experiment: Assay B: SIRPα signalling assay using Raji cells
Format: cell-based
Details: Homo sapiens, Table 4, compounds of the invention, read-out: Inhibition of SIRPα signalling induced by Raji cells: IC50
Experimental: Bioassay reagent 1 of the PathHunter Bioassay detection kit (DiscoverX 93-0001) was added to each well of the plate using a multichannel pipette followed by a 15 min incubation at room temperature. Afterwards bioassay reagent 2 was added followed by 60 min incubation at room temperature (incubation in the dark).
The analysis of the data was performed using the luminescence signal generated by beta-galactosidase in the PathHunter reporter cell line. The luminescence measurement was done using a Pherastar Multi-Mode Reader.
In the case of `Cn1cnnc1C1(F)CCN(c2c(C#N)cc(C(F)(F)F)nc2-c2cnc3nn(C(C)(C)C)c(C4CC4)c3c2)CC1` [Example 26], the IC50 is reported as 4 nM. In the case of `Cn1cnnc1C1(F)CCN(c2c(C#N)cc(C(F)(F)F)nc2-c2cnc3nn(C(C)(C)C)c(C(F)F)c3c2)CC1` [Example 16], the IC50 is reported as 11 nM.

Same assay, conditions: Homo sapiens, Table 5, prior art compounds, read-out: Inhibition of SIRPα signalling induced by Raji cells: IC50
`Cn1cncc1C1CCN(c2c(C#N)cccc2-c2ccc(F)nc2)CC1` [QP5038, reference compound] showed an IC50 of 21 nM.

Molecular target: T2, QPCT (Homo sapiens, UniProt Q16769)
T2 construct: purchased Origine (OriGene) TP700028
T2 sequence (Q16769 29-361): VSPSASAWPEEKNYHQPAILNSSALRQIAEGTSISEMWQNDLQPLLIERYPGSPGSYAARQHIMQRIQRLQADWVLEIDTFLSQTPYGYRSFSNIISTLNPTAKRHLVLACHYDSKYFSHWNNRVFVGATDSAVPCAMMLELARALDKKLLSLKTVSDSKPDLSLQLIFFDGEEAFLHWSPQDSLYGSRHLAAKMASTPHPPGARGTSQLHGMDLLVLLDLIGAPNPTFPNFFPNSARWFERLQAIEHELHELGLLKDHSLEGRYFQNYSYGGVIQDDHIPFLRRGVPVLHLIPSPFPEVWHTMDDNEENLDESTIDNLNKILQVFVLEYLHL
Experiment: Assay A: biochemical QPCT activity assay (MALDI-TOF MS, CD47 peptide substrate)
Details: Table 2, compounds of the invention, read-out: Inhibition of QPCT: IC50
Experimental: as §1
With `Cn1cnnc1C1(F)CCN(c2c(C#N)cc(C(F)(F)F)nc2-c2cnc3nn(C(C)(C)C)c(C4CC4)c3c2)CC1` [Example 26] the IC50 was 1 nM. In the case of `Cn1cnnc1C1(F)CCN(c2c(C#N)cc(C(F)(F)F)nc2-c2cnc3nn(C(C)(C)C)c(C(F)F)c3c2)CC1` [Example 16], the IC50 is reported as 1 nM.
